In patent US20180169123A1, “COMBINATION THERAPY WITH A FLAVAGLINE AND 2-DEOXYGLUCOSE” (Ruprecht-Karls-Universitat Heidelberg, priority 2015, published 2018):

Tests used:
Format in all cases: cell-based
tumor cell lines = test: MTT cell viability assay, number of responding cell lines (Example 1); details: 2-DG 1 mM alone; 48 h
Description: (§1) The MTT (MethylThiazol Tetrazolium) assay was used to determine cell viability. The MTT assay is a colorimetric method for measuring the activity of cellular enzymes that reduce the tetrazolium dye, MTT, to its insoluble formazan, giving a purple color. This method was used in the present experiments to reflect the number of viable cells present and to measure cytotoxicity (loss of viable cells).
Cells were plated in flat-bottom 96-well plates at a cell number of 10,000 in 100 p of medium per well. RPMI 1640 (Roswell Park Memorial Institute, Gibco, City, State) supplemented with fetal bovine serum (10%) and penicillin/streptomycin (1%) medium was used for cell culturing and plating. After plating, cells were incubated at 37° C. in an incubator at 5% CO2 concentration for 24 hours before the beginning of treatment. […]
To determine the amount of viable cells after the treatment, the absorption was measured at a wave length of 485 nm with the help of an ELISA reader device (TECAN GENios, Austria). […] Mean values and standard deviations were calculated from the measured values after background subtraction. As background, absorption was measured in wells containing medium alone.
2-DG treatment at a concentration of 1 mM induced a significant response (reduction of viability to less than 80% of the untreated cells) in 9 out of 15 cell lines analyzed.

in vitro = details: human
Description: (§2) FIG. 3: Cell viability of […] cells treated with 2DG (1 mM or 4 mM) and of PBMCs treated with 2DG (1 mM) alone or in combination with Rocaglamide (0.1 μM, 0.025 μM, 0.01 μM).

U138MG cells = test: Cell viability with 2DG alone or combined with Rocaglamide (Example 4, FIG. 3); details: Mus musculus, U138-MG, 4 mM 2DG alone
Description: as §2
In order to evaluate the potential of Rocaglamide to reduce the dose of 2DG while at the same time maintaining its antitumoral effect, combinations of different doses of 2DG with Rocaglamide were evaluated in U138MG cells ([…]). The cell-killing effect of the combination of Rocaglamide and 2DG was then compared with the effect of 2DG alone.

NCH89 = test: MTT cell viability assay, tumor cell line (Example 1); details: Homo sapiens, 48 h, relative to untreated cells, read-out: Cell viability after treatment
Description: as §1
(§3) Cells were plated in flat-bottom 96-well plates at a cell number of 10,000 in 100 p of medium per well. RPMI 1640 (Roswell Park Memorial Institute, Gibco, City, State) supplemented with fetal bovine serum (10%) and penicillin/streptomycin (1%) medium was used for cell culturing and plating. After plating, cells were incubated at 37° C. in an incubator at 5% CO2 concentration for 24 hours before the beginning of treatment. After that, when cells became adherent, the medium was removed and 2-DG and rocaglamide were added to the cells at a concentration of 1 mM and 0.1 μM, respectively. After 48 hours of incubation, 20 μl of MTT reagent was added to each well. Cells were incubated for 1 hour at 37° C. before colorimetric assessment
(§4) To determine the amount of viable cells after the treatment, the absorption was measured at a wave length of 485 nm with the help of an ELISA reader device (TECAN GENios, Austria). All measurements were carried out in quadruplicate. Mean values and standard deviations were calculated from the measured values after background subtraction. As background, absorption was measured in wells containing medium alone.

GL261 = test: as above; details: Mus musculus, 48 h, relative to untreated cells, read-out: Cell viability after treatment
Description: as §1, §3, §4

HCT116 = test: as above; details: Homo sapiens, 48 h, relative to untreated cells, read-out: Cell viability after treatment
Description: as §1, §3, §4

H146 = test: as above; details: Homo sapiens, 48 h, relative to untreated cells, read-out: Cell viability after treatment
Description: as §1, §3, §4

NCH82 = test: as above; details: Homo sapiens, 48 h, relative to untreated cells, read-out: Cell viability after treatment
Description: as §1, §3, §4

U373 = test: as above; details: Homo sapiens, U373 MG, 48 h, relative to untreated cells, read-out: Cell viability after treatment
Description: as §1, §3, §4

C3 = test: as above; details: 48 h, relative to untreated cells, read-out: Cell viability after treatment
Description: as §1, §3, §4

K073 = test: as above; details: 48 h, relative to untreated cells, read-out: Cell viability after treatment
Description: as §1, §3, §4

SMA560 = test: as above; details: Mus musculus, 48 h, relative to untreated cells, read-out: Cell viability after treatment
Description: as §1, §3, §4

RKO = test: as above; details: Homo sapiens, 48 h, relative to untreated cells, read-out: Cell viability after treatment
Description: as §1, §3, §4

SW480 = test: as above; details: Homo sapiens, 48 h, relative to untreated cells, read-out: Cell viability after treatment
Description: as §1, §3, §4

LNT229 = test: as above; details: 48 h, relative to untreated cells, read-out: Cell viability after treatment
Description: as §1, §3, §4

HT29 = test: as above; details: Homo sapiens, 48 h, relative to untreated cells, read-out: Cell viability after treatment
Description: as §1, §3, §4

HT29 cells = test: MTT assay, IC50 of flavaglines with and without 2DG (Example 2); details: HT29 (FIG. 1B); flavagline 10-100 nM with 1 mM 2DG versus flavagline alone; 48 h
From the text: (§5) FIG. 1: Determination of IC50 of Rocaglamide and FL3. Treatment schemes are illustrated by different line patterns explained on the right side of each graphic. Solid lines with squares represent treatment with Rocaglamide, dotted lines with circles represent treatment with Rocaglamide and 2DG in combination, dotted lines with triangles represent treatment with FL3, and dotted lines with rhombus represent treatment with FL3 and 2DG in combination. X axis represents treatment doses of flavaglines (Rocaglamide or FL3), y axis represents relative cell viability (determined by MT assay) in %; cells not treated with flavaglines are used as a reference (corresponding to 100% viability). A. HCT116 cells. B. HT29 cells. C: normal human PBMCs.
(§6) The MTT (MethylThiazol Tetrazolium) assay was the same as in Example 1. Colorectal cancer cells (HCT116 and HT29) as well as normal human PBMCs were plated in flat-bottom 96-well plates at a cell number of 10,000 and 100,000, respectively, in 100 μl of medium per well. […] (Roswell Park Memorial Institute, Gibco, Paisley, UK) supplemented with 10% fetal bovine serum and 1% penicillin/streptomycin (Gibco, N.Y., USA) medium was used for cell culturing and plating of tumor cells. Medium for PBMCs consisting of Iscove's modified DMEM (IMDM) supplemented by 10% human AB serum, 1% L-glutamin and 0,05% gentamycin was used for plating PBMCs. After plating, rocaglamide and FL3 were applied at five increasing concentrations (10, 25, 50, 75 and 100 nM) as single substances and in combination with 1 mM 2DG. Cells were then incubated with drugs in a CO2 chamber at 5% CO2 concentration (Memmert Incubator, Büchenbach, Germany) for 48 hours. Afterwards, 20 μl of MTT reagent (Promega, Madison, Wis., USA) were added to each well. Cells were incubated for 1 hour at 37° C. as above. To determine the amount of viable cells after the treatment the absorption was measured at a wave length of 485 nm in ELISA reader device (TECAN GENios, Salzburg, Austria). All measurements were carried out in quadruplicates.
(§7) Mean values and standard deviations were calculated from the measured values after background subtraction. As background, absorption was measured in wells containing only medium.

normal human PBMCs = test: as above; details: normal human PBMCs (FIG. 1C); flavagline 10-100 nM with 1 mM 2DG versus flavagline alone; 48 h
From the text: as §5, §6, §7

HCT116 cells = test: as above; details: HCT116 (FIG. 1A); flavagline 10-100 nM with 1 mM 2DG versus flavagline alone; 48 h
From the text: as §5, §6, §7

OC[C@H]1OC(O)C[C@@H](O)[C@@H]1O (stereo partly drawn) [2DG, (4R,5S,6R)-6-(hydroxymethyl)oxane-2,4,5-triol]
cell lines with significant response (reduction of viability to less than 80% of the untreated cells) (tumor cell lines): 9 out of 15 | viability at 48 h, 1 mM (in vitro): 81.7% | viability at 4000 µM (U138MG cells; U136MG cells, read-out: cell viability compared to the untreated control): 46% | cytotoxicity at 4000 µM (U138MG cells; U138MG cells, read-out: reduction of cell viability compared to the untreated control): 54% | viability at 1000 µM (NCH89; 2DG 1 mM alone): 83.7% | viability at 1000 µM (GL261; 2DG 1 mM alone): 63.8% | viability at 1000 µM (HCT116; HCT-116, 2DG 1 mM alone): 82% | viability at 1000 µM (H146; NCI-H146, 2DG 1 mM alone): 90.5% | viability at 1000 µM (NCH82; 2DG 1 mM alone): 68.3% | viability at 1000 µM (U373; 2DG 1 mM alone): 95.6% | viability at 1000 µM (C3; 2DG 1 mM alone): 103% | viability at 1000 µM (K073; 2DG 1 mM alone): 89.6% | viability at 1000 µM (SMA560; SMA-560, 2DG 1 mM alone): 102% | viability at 1000 µM (RKO; 2DG 1 mM alone): 118% | viability at 1000 µM (SW480; 2DG 1 mM alone): 70.8% | viability at 1000 µM (LNT229; 2DG 1 mM alone): 113% | viability at 1000 µM (HT29; HT-29, 2DG 1 mM alone): 87.5%

COc1cc(OC)c2c(c1)O[C@@]1(c3ccc(Br)cc3)[C@H](c3ccccc3)C[C@@H](O)[C@@]21O [FL3, (1R,3S,3aR,8bS)-3a-(4-Bromophenyl)-6,8-dimethoxy-3-phenyl-2,3,3a,8b-tetrahydro-1H-cyclopenta[b]benzofuran-1,8b-diol]
change of IC50 of the flavagline in combination with 2DG (HT29 cells): substantially reduced | change of IC50 of the flavagline in the presence of 2DG (normal human PBMCs): increased | change of IC50 of the flavagline in combination with 2DG (HCT116 cells): substantially reduced

COc1ccc([C@@]23Oc4cc(OC)cc(OC)c4[C@]2(O)[C@H](O)[C@H](C(=O)N(C)C)[C@H]3c2ccccc2)cc1 [Rocaglamide, (1R,2R,3S,3aR,8bS)-1,8b-dihydroxy-6,8-dimethoxy-3a-(4-methoxyphenyl)-N,N-dimethyl-3-phenyl-2,3-dihydro-1H-cyclopenta[b][1]benzofuran-2-carboxamide]
change of IC50 of the flavagline in combination with 2DG (HT29 cells): substantially reduced | change of IC50 of the flavagline in the presence of 2DG (normal human PBMCs): increased | change of IC50 of the flavagline in combination with 2DG (HCT116 cells): substantially reduced | viability at 0.1 µM (NCH89; rocaglamide 0.1 μM alone): 56.6% | viability at 0.1 µM (GL261; rocaglamide 0.1 μM alone): 58.2% | viability at 0.1 µM (HCT116; HCT-116, rocaglamide 0.1 μM alone): 14.8% | viability at 0.1 µM (H146; NCI-H146, rocaglamide 0.1 μM alone): 47.3% | viability at 0.1 µM (NCH82; rocaglamide 0.1 μM alone): 63.2% | viability at 0.1 µM (U373; rocaglamide 0.1 μM alone): 76.4% | viability at 0.1 µM (C3; rocaglamide 0.1 μM alone): 45.3% | viability at 0.1 µM (K073; rocaglamide 0.1 μM alone): 35.9% | viability at 0.1 µM (SMA560; SMA-560, rocaglamide 0.1 μM alone): 92.8% | viability at 0.1 µM (RKO; rocaglamide 0.1 μM alone): 42.9% | viability at 0.1 µM (SW480; rocaglamide 0.1 μM alone): 59.5% | viability at 0.1 µM (LNT229; rocaglamide 0.1 μM alone): 100% | viability at 0.1 µM (HT29; HT-29, rocaglamide 0.1 μM alone): 52.3%
